The values below come from ChEMBL document CHEMBL1122146, “Conformation-activity study of methadone and related compounds” (J Med Chem, 1982).

The target in this experiment is Mu-type opioid receptor (Cavia porcellus) (UniProt P97266). Nature of the experiment: Evaluated for analgesic activity as effective dose. It counts as functional.

Structures are written as SMILES.

Chain of Mu-type opioid receptor (Cavia porcellus) (P97266 whole entry): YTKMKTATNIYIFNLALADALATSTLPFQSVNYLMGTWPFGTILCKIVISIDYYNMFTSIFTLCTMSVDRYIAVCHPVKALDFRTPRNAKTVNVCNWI

One may read the ED50 as the dose at which the effect has come halfway, by size or by number of responders. Regarding `CC[C@H](O)C(C[C@@H](C)N(C)C)(c1ccccc1)c1ccccc1`, the 50% effect level (ED50) was put at a dose of 7.6 mg/kg.
With `CC[C@H](O)C(C[C@H](C)N(C)C)(c1ccccc1)c1ccccc1` the figure was 3.5 mg/kg; with `CC[C@@H](O)C(c1ccccc1)(c1ccccc1)[C@@H](C)CN(C)C`, 58.7 mg/kg.
The result for `CCC(=O)C(C[C@@H](C)N(C)C)(c1ccccc1)c1ccccc1` reads 0.8 mg/kg; that for `CCC(=O)C(CC(C)N(C)C)(c1ccccc1)c1ccccc1` (stereo in doubt; threo), more than 50 mg/kg; that for `CC[C@@H](O)C(C[C@@H](C)N(C)C)(c1ccccc1)c1ccccc1`, 24.7 mg/kg.
In turn, `CCC(=O)C(C[C@H](C)N(C)C)(c1ccccc1)c1ccccc1` came in with an ED50 of 25.7 mg/kg.
`CCC(O)C(C[C@H](C)NC)(c1ccccc1)c1ccccc1` (some centres not stated) registered an ED50 of 10.3 mg/kg.
Take `CC[C@H](O)C(c1ccccc1)(c1ccccc1)[C@H](C)CN(C)C`: the ED50 was 6.2 mg/kg.
The result for `CCC(=O)C(c1ccccc1)(c1ccccc1)[C@H](C)CN(C)C` reads 1.2 mg/kg.
As for `CCC(=O)C(CC(C)N(C)C)(c1ccccc1)c1ccccc1` (stereo in doubt; erythro), the 50% effect level (ED50) was put at a dose of 0.4 mg/kg.
Turning to `CC[C@H](O)C(c1ccccc1)(c1ccccc1)[C@@H](C)CN(C)C`, the ED50 was determined as 60.7 mg/kg.
In the case of `CCC(=O)C(c1ccccc1)(c1ccccc1)[C@@H](C)CN(C)C`, the median effective dose (ED50) was determined as 49.8 mg/kg.
Molecule `CC[C@@H](O)C(c1ccccc1)(c1ccccc1)[C@H](C)CN(C)C` displayed an ED50 of 91.7 mg/kg.
As for `CCC(=O)C(CCN(C)C)(c1ccccc1)c1ccccc1`, the ED50 came out at 2.5 mg/kg.
`CCC(O)C(C[C@@H](C)NC)(c1ccccc1)c1ccccc1` (some centres not stated) displayed an ED50 of 17.7 mg/kg.
With `CC[C@@H](O)C(C[C@H](C)N(C)C)(c1ccccc1)c1ccccc1`, the ED50 came out at 63.7 mg/kg.
